Data set [1] deals with T1, ScAlt1 (Saccharomyces cerevisiae, UniProt P52893).
T1 construct: gene ALT1; N-terminal His-tag (pET-28a), E. coli Rosetta 2 (DE3); theoretical monomer 61 kDa, SEC 147 kDa, dimer
T1 sequence (P52893 81-592): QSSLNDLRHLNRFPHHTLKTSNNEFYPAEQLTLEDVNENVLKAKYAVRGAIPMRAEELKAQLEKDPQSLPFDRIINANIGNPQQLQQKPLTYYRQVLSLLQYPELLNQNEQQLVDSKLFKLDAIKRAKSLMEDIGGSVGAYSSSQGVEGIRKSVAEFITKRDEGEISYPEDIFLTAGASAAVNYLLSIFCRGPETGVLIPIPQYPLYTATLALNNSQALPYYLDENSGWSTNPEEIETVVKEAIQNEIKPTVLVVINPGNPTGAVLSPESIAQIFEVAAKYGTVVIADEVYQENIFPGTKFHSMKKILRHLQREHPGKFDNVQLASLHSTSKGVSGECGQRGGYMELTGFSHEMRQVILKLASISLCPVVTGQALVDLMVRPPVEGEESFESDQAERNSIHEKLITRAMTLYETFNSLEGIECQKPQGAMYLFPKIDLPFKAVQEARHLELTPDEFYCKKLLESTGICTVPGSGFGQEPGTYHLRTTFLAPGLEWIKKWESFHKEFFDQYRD
In words: UV-visible shift, external Schiff base ([…] nm). The class given is binding. The conditions noted are these: 50 mM KH2PO4, 4 mM MgCl2, PLP, covalent.

The target of another data set is T2, ScAlt2 (Saccharomyces cerevisiae, UniProt P52892).
T2 construct: gene ALT2; N-terminal His-tag (pET-28a), E. coli Rosetta 2 (DE3), 4°C expression; forward primer ATGACAATGACACACCAACAGG (MTMTHQQ); theoretical monomer 58 kDa, SEC 127 kDa, dimer
T2 sequence (P52892 1-507): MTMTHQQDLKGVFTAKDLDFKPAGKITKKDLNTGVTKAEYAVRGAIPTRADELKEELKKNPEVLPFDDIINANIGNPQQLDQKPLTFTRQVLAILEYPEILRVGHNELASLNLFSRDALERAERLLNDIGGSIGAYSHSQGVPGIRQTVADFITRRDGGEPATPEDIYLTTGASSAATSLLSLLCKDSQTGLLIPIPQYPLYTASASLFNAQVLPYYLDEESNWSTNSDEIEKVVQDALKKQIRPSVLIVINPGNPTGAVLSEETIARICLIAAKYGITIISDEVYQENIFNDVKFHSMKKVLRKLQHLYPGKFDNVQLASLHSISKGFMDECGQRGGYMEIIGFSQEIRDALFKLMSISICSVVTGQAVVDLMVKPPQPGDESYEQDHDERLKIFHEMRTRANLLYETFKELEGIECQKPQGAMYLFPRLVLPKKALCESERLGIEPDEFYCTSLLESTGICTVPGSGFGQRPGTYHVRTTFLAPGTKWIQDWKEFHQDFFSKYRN
Kind of data set: UV-visible absorption of Schiff base ([…] nm), NaBH4 reduction. The class given is binding. The conditions noted are these: covalent (reversible internal Schiff base, ketoenamine); 50 mM K2HPO4, 4 mM MgCl2, pH 7.5, 100 μM PLP.

Data set [2] has as its target T1, ScAlt1. In words: UV-visible absorption of Schiff base ([…]-335 and […] nm), NaBH4 reduction. The class given is binding. Particulars: covalent (reversible internal Schiff base, enolimine and ketoenamine); 50 mM K2HPO4, 4 mM MgCl2, pH 7.5, 100 μM PLP.
Data set [3] has as its target T1, ScAlt1. Kind of data set: intrinsic fluorescence titration ([…] nm). The class given is binding.
Data set [4] deals with the molecule itself. Kind of data set: SEC; Superose 6 10/300 GL on an Akta FPLC; mobile phase 50 mM K2HPO4, 4 mM Mg2Cl, pH 7.5; calibrated with Bio-Rad molecular weight standards.
Substrate in data set [5]: C[C@H](N)C(=O)O
In words: purified protein. Particulars: varied alanine 2-15 mM and α-ketoglutarate 0.05-10 mM, 40 μM PLP, pH 7.5, 25°C, ping-pong, Ka here = Michaelis constant.

Substrate in data set [6]: O=C(O)CCC(=O)C(=O)O
Kind of data set: purified protein. It is filed as biochemical, Saccharomyces cerevisiae. The conditions noted are these: varied alanine 2-15 mM and α-ketoglutarate 0.05-10 mM, 40 μM PLP, pH 7.5, 25°C, ping-pong, Ka here = Michaelis constant, co-substrate alanine.

[7] abbreviates: 1 μl of 81 mM stock added to 10 μl protein.

For the molecule `N[C@@H](CC(=O)O)C(=O)O` [aspartic acid], the “UV-visible shift, external Schiff base (325 nm)” value (“UV-visible shift” below) at ScAlt1 [1] (setting [7]) was “ScAlt1 could form external Schiff base with glutamate, serine, cysteine, histidine, and aspartic acid”.

For the molecule `N[C@@H](CO)C(=O)O` [serine], on ScAlt1 [1] (1 μl of 23 mM stock added to 10 μl protein), the “UV-visible shift” value is “ScAlt1 could form external Schiff base with glutamate, serine, cysteine, histidine, and aspartic acid”. For `N[C@@H](CS)C(=O)O` [cysteine], the “UV-visible shift” value on ScAlt1 [1] (1 μl of 238 mM stock added to 10 μl protein) was “ScAlt1 could form external Schiff base with glutamate, serine, cysteine, histidine, and aspartic acid”. As for `Cc1ncc(COP(=O)(O)O)c(C=O)c1O` [PLP], at ScAlt2, the “UV-visible absorption of Schiff base (420 nm), NaBH4 reduction” value was “both, ScAlt1 and ScAlt2 have PLP attached through a Schiff base”. The “UV-visible absorption of Schiff base (330-335 and 420 nm), NaBH4 reduction” value at ScAlt1 [2] is “both, ScAlt1 and ScAlt2 have PLP attached through a Schiff base”.

`N[C@@H](Cc1cnc[nH]1)C(=O)O` [histidine]: on ScAlt1 [1] (1 μl of 20 mM stock added to 10 μl protein), the “UV-visible shift” value was “ScAlt1 could form external Schiff base with glutamate, serine, cysteine, histidine, and aspartic acid”. As for `N[C@@H](CCC(=O)O)C(=O)O` [glutamate], at ScAlt1 [1] (setting [7]), the “UV-visible shift” value was “ScAlt1 could form external Schiff base with glutamate, serine, cysteine, histidine, and aspartic acid”. For the molecule `C[C@H](N)C(=O)O` [alanine], the Kd (as a rule, the equilibrium constant for the complex coming apart) at ScAlt1 [3] was 1000 ± 100 µM.

B1: ScAlt2 (Saccharomyces cerevisiae presumed alanine transaminase paralogue), recombinant (enzyme, S. cerevisiae, UniProt P52892 1-507, looked up)
chain: MTMTHQQDLKGVFTAKDLDFKPAGKITKKDLNTGVTKAEYAVRGAIPTRADELKEELKKNPEVLPFDDIINANIGNPQQLDQKPLTFTRQVLAILEYPEILRVGHNELASLNLFSRDALERAERLLNDIGGSIGAYSHSQGVPGIRQTVADFITRRDGGEPATPEDIYLTTGASSAATSLLSLLCKDSQTGLLIPIPQYPLYTASASLFNAQVLPYYLDEESNWSTNSDEIEKVVQDALKKQIRPSVLIVINPGNPTGAVLSEETIARICLIAAKYGITIISDEVYQENIFNDVKFHSMKKVLRKLQHLYPGKFDNVQLASLHSISKGFMDECGQRGGYMEIIGFSQEIRDALFKLMSISICSVVTGQAVVDLMVKPPQPGDESYEQDHDERLKIFHEMRTRANLLYETFKELEGIECQKPQGAMYLFPRLVLPKKALCESERLGIEPDEFYCTSLLESTGICTVPGSGFGQRPGTYHVRTTFLAPGTKWIQDWKEFHQDFFSKYRN
notes: ScAlt2 of S. cerevisiae, amplified from genomic DNA of strain CLA1; the forward primer starts at ATGACAATGACACACCAACAGG (MTMTHQQ) and the reverse primer holds the stop codon (TCA ATT ACG ATA ...); theoretical monomer mass printed as 58 kDa; source: E. coli Rosetta 2 (DE3), pET-28a(+), purified (Ni-NTA)
On to B1, for which, in data set [4], the stoichiometry N (usually a count of units in the complex or per binding partner) amounted to 2.

B2: ScAlt1 (Saccharomyces cerevisiae S288C) (protein)
chain: QSSLNDLRHLNRFPHHTLKTSNNEFYPAEQLTLEDVNENVLKAKYAVRGAIPMRAEELKAQLEKDPQSLPFDRIINANIGNPQQLQQKPLTYYRQVLSLLQYPELLNQNEQQLVDSKLFKLDAIKRAKSLMEDIGGSVGAYSSSQGVEGIRKSVAEFITKRDEGEISYPEDIFLTAGASAAVNYLLSIFCRGPETGVLIPIPQYPLYTATLALNNSQALPYYLDENSGWSTNPEEIETVVKEAIQNEIKPTVLVVINPGNPTGAVLSPESIAQIFEVAAKYGTVVIADEVYQENIFPGTKFHSMKKILRHLQREHPGKFDNVQLASLHSTSKGVSGECGQRGGYMELTGFSHEMRQVILKLASISLCPVVTGQALVDLMVRPPVEGEESFESDQAERNSIHEKLITRAMTLYETFNSLEGIECQKPQGAMYLFPKIDLPFKAVQEARHLELTPDEFYCKKLLESTGICTVPGSGFGQEPGTYHLRTTFLAPGLEWIKKWESFHKEFFDQYRD
notes: N-terminal His-tag (pET-28a), E. coli Rosetta 2 (DE3); theoretical monomer 61 kDa, SEC 147 kDa, dimer
B2: the Km in “purified protein [5]” is on record as 10.39 ( ± 1.12) mM; in the data set “purified protein [6]” it was 0.67 ( ± 0.06) mM. Also, the kcat in the data set “purified protein [5]” and in the data set “purified protein [6]” was 698 s⁻¹ throughout.

B3: ScAlt1 (Saccharomyces cerevisiae alanine transaminase), recombinant, without the mitochondrial localization sequence (enzyme, S. cerevisiae, UniProt P52893 65-592, looked up)
chain: SSSWIVAQNHRRSLSGQSSLNDLRHLNRFPHHTLKTSNNEFYPAEQLTLEDVNENVLKAKYAVRGAIPMRAEELKAQLEKDPQSLPFDRIINANIGNPQQLQQKPLTYYRQVLSLLQYPELLNQNEQQLVDSKLFKLDAIKRAKSLMEDIGGSVGAYSSSQGVEGIRKSVAEFITKRDEGEISYPEDIFLTAGASAAVNYLLSIFCRGPETGVLIPIPQYPLYTATLALNNSQALPYYLDENSGWSTNPEEIETVVKEAIQNEIKPTVLVVINPGNPTGAVLSPESIAQIFEVAAKYGTVVIADEVYQENIFPGTKFHSMKKILRHLQREHPGKFDNVQLASLHSTSKGVSGECGQRGGYMELTGFSHEMRQVILKLASISLCPVVTGQALVDLMVRPPVEGEESFESDQAERNSIHEKLITRAMTLYETFNSLEGIECQKPQGAMYLFPKIDLPFKAVQEARHLELTPDEFYCKKLLESTGICTVPGSGFGQEPGTYHLRTTFLAPGLEWIKKWESFHKEFFDQYRD
notes: ScAlt1, alanine transaminase of S. cerevisiae, amplified from genomic DNA of strain CLA1; no residue limits are stated; the forward primer (CATATGCAATCTTCGCTAAACGACCTGC) places the start at Met-QSSLNDL; the reverse primer appears to lie after the stop codon; theoretical monomer mass printed as 61 kDa; The start of the construct can be worked out from the printed forward primer …
B3: the “stoichiometry N” value in data set [4] amounted to 2.
